Experimental findings from patent US20160228444A1, “NUCLEOSIDE ANALOGS AND USES THEREOF” (Ramot at Tel-Aviv University Ltd., priority 2015, published 2016) are described below.

The IC50 is the concentration that gives 50% inhibition.

Read-outs that look alike come from different tables or passages of the source.

For one data set, the system named is primary rat astrocytes. It counts as cell-based. Conditions: noncancerous cells; combination compared to Dox alone; FIG. 1C. As for the experimental part: Cell viability by flow cytometry analysis (FACS) analysis was determined using the Mebcyto apoptosis kit (MBL-Japan). The cell lines 4T1, U251 (2×10^5 cells/well), astrocytes and the cardiomyoblastic cell line H9C2 (5×10^5 cells/well) were seeded in six-well plates. Following treatment they were trypsinized, washed with PBS, resuspended in […] of binding buffer and double-stained with annexin V-FITC and propidium iodide (PI) according to the manufacturer's instructions. The stained cells were subjected to FACS analyses (Calibur cytometer, Becton Dickinson) where 30,000 cells were allowed to flow for each determination point and the percentage of cells in each state (viability or death) was defined by their distribution in fluorescence dot-plots using WinMdi 2.8 software (Scripps Research Institute, La-Jolla, USA).
The apoptotic effect of AN446, Dox and their combination was evaluated in U251 and 4T1 cancer cells, and in the non-cancerous rat cardiomyoblast cell line (H9C2) and in primary rat astrocytes, using procedures previously described for AN7 [Tarasenko et al., Invest New Drugs 2012, 30:130-143].

The test system of a further data set is c-Myc. The data set is described as follows: c-Myc and p-c-Myc (Thr 58) Western blot in tumor and heart of xenograft mice. It counts as in vivo. As for the experimental part:
Protein levels in the samples were determined with the BCA protein assay kit (Pierce). The samples were subjected to Western blot analyses. The expression of proteins was visualized using their specified primary antibodies followed by the secondary IgG IRDye® 680DX antibody. Each detected band was quantified using the Odyssey Infrared Imaging System (LI-COR Biosciences) and normalized to the level of actin. The fold increase of a specific protein was determined by the ratio of the band intensity obtained from treated and untreated samples.
The c-Myc protein is an important regulator of normal cell physiology and in tumor cells it plays an important role in activating oncogenic pathways [Soucek & Evan, Curr Opin Genet Dev 2010, 20:91-95].
(In general: In western blotting, separated proteins are transferred to a membrane and probed.)

Data set [1] has as its system TNF-α. The data set is described as follows: TNF-α in supernatant of LPS-treated THP1 cells (ELISA). It counts as cell-based. The conditions noted are these: 1 μg/ml LPS, AN446 20 or 40 μM, FIG. 7B. As for the experimental part: (§1) The effect of AN446 on inflammation-associated pathways was evaluated in the monocytic THP1 cell line and in the MDA-MB-231 breast carcinoma cell line. Supernatants of treated THP1 cells were collected and IL-6, IL-10 and TNF-α concentrations were quantified by ELISA (R&D systems). TLR4 expression in THP1 cells was assessed using fluorescent anti-TLR4 antibodies and FACS analysis. In addition, gene expression for MCP-1, TNF-α and TLR4 in MDA-MB-231 was evaluated by qRT-PCT, following treatment with AN446 and/or paclitaxel.
For orientation: In an ELISA, binding on a coated surface is turned into a signal by an enzyme label.

The test system of data set [2] is TNF-α. Put plainly: TNF-α gene expression in MDA-MB-231 cells (qRT-PCR). It counts as cell-based, human. Conditions: combination with paclitaxel, FIG. 7C. As to the method: as §1
Background: Real-time PCR tracks product formation cycle by cycle.

In another data set the test system is fibrous collagen. Put plainly: Fibrosis in tumor, heart and kidney of U251 xenograft mice (Picrosirius Red / Fast Green). The class given is in vivo. As to the method:
AN446 was tested in vivo using a xenograft of glioblastoma (U251 cells) in mice.

The subject of data set [3] is proliferating fibroblasts in cardiac tissue. Put plainly: Proliferating fibroblasts in heart sections (Ki67 / vimentin immunostaining). It counts as in vivo, mice. The conditions noted are these: co-administration with doxorubicin, FIGS. 8B, 8C. The source says:
In addition, by double-staining heart sections by immunostaining for the fibroblast marker vimentin and the proliferation marker Ki67, it was observed that most of the proliferating (Ki67-positive) cells in hearts of doxorubicin-treated mice were fibroblasts (vimentin-positive).

Data set [4] relates to peripheral blood lymphocytes (PBLs) from healthy volunteers. Put plainly: MTT cell viability assay, 48 hours. The class given is cell-based. Conditions: Homo sapiens, Lymphocyte, read-out: IC50 PBL. As to the method: The MyLa CTLC cell line (originating from an indolent mycosis fungoides patient) and the Hut-78 CTLC cell line (originating from an aggressive Sézary patient) were used to evaluate toxicity towards cancer cells, and peripheral blood lymphocytes (PBLs) from healthy volunteers were used to evaluate toxicity towards noncancerous cells.
(§2) Cell viability was determined by an MTT cell viability assay after 48 hours. MyLa cells (10^4 cells/well), Hut78 cells (5×10^3 cells/well) and normal PBLs (10^5 cells/well) were seeded in 96 well-plates. The PBLs were activated with 40 μg/10^6 cells of phytohemagglutinine (PHA) for 24 h before the experiment.

Another data set deals with PBL. Put plainly: Median-effect drug interaction, MTT viability, 72 h. It counts as cell-based. Conditions: Homo sapiens. As for the experimental part: as §2
The ratios of the drug combination were based on the ratio of their IC50 of each drug alone. Cell viability was determined by MTT assay, as described hereinabove. The drugs were added to the cells and incubated for 72 h.

The next data set concerns pH2AX in H9C2 cells. Put plainly: Phosphorylated H2AX (Western blot), 24 or 48 hours. It counts as cell-based, rat. The conditions noted are these: FIG. 13B. As to the method:
(§3) The effects of the abovementioned HDAC inhibitors on DNA damage and repair were then assessed by evaluating changes in levels of phosphorylated histone H2AX (pH2AX), a marker of DNA double-strand breaks, and Rad51, a marker of homologous recombination-guided DNA repair of double-strand breaks [Nagathihalli & Nagaraju, Biochim Biophys Acta 2011, 1816:209-218; Rogakou et al., J Biol Chem 1998, 273:5858-5868].
(§4) U251 and H9C2 cells were treated with the HDAC inhibitors for 24 or 48 hours, and then subjected to Western blot analysis.

The test system of the next data set is Rad51 in H9C2 cells. Put plainly: Rad51 (Western blot), 24 or 48 hours. It counts as cell-based, rat. The conditions noted are these: FIG. 14B. As to the method: as §3, §4
In another data set the test system is IL-6. Put plainly: LPS-induced IL-6 secretion by normal human astrocytes (sandwich-ELISA). The class given is cell-based. Conditions: 20 μM, LPS 1 μg/ml 24 hours, FIG. 16. As to the method:
Normal human astrocytes (NHA) were treated with 20 μM AN446, and lipopolysaccharide (1 μg/ml) was then added for 24 hours, and the supernatants of the cultured cells were collected. IL-6 concentrations in cell culture supernatants were quantified by sandwich-ELISA using specific pairs of mAb antibodies (R&D).

A further data set deals with U251 cells. The data set is described as follows: Hoechst viability assay 72 h / median-effect combination study. The conditions noted are these: Homo sapiens, U-251, 72 h, read-out: IC50 value for viability in U251 cells after 72 hours.
In a further data set the test system is TLR4. Conditions: 24 hours, concentrations based on the IC50, FIG. 15.
Data set [5] concerns 10 different cancer cell lines. Put plainly: Viability assay (Hoechst for adherent cells, MTT for suspension cells), 72 h.
Experimental: Hoechst assay: 22RV-1, MCF-7, MCF-7DX, 4T1, U251, and T47D cells (3×10^3 cells/well) and NCI-N87 (8×10^3 cells/well) were seeded in tissue culture in growth medium for 24 h in 96-well plates (in triplicate) and then exposed to different concentrations (titration) of the tested drug for 72 h at 37° C. The plates were then rinsed with PBS and fixed with 100 ml of 70% ethanol for 30 min. […] The fluorescence was measured (excitation at 390 nm and emission at 460 nm) with a Synergy III Fluorometer-Elisa reader (BioTek Instruments, Inc. Germany). The viability of cells grown in suspension was measured by the MTT assay. HL-60, Daudi and Jurkat cells were seeded (5×10^3 cells/well) in 96-well plates in growth medium and immediately exposed to different concentrations (titration) of the tested drugs (in triplicate). After 72 h incubation, the MTT reagent in PBS (10 ml of 5 mg/ml) was added to the cell suspension and incubated for an additional 3 h. Then, 100 ml of 0.04 M HCl in isopropanol was added and the absorbance at 570 nm measured using a Synergy III Fluorometer-spectrophotometer ELISA reader.

Experimental for U251 cells: Hoechst assay: 22RV-1, MCF-7, MCF-7DX, 4T1, U251, and T47D cells (3×10^3 cells/well) and NCI-N87 (8×10^3 cells/well) were seeded in tissue culture in growth medium for 24 h in 96-well plates (in triplicate) and then exposed to different concentrations (titration) of the tested drug for 72 h at 37° C. The plates were then rinsed with PBS and fixed with 100 ml of 70% ethanol for 30 min. […] The fluorescence was measured (excitation at 390 nm and emission at 460 nm) with a Synergy III Fluorometer-Elisa reader (BioTek Instruments, Inc. Germany).
The Median Effect Analysis (MEA) for a constant combination ratio was used for drugs interaction and the combination index (CI) determination.
The average values of three independent experiments were calculated and analyzed with CalcuSyn software.

On to `CCCC(CCC)C(=O)Nc1nc2c(ncn2COCCOC(=O)C(CCC)CCC)c(=O)[nH]1` [AN446, N-valproyl-9-(2-valproyloxy)ethoxymethyl-guanine], for which, in the data set on primary rat astrocytes, the “viability / mortality of astrocytes” value is listed as “did not substantially affect the viability”. In addition, the “c-Myc protein expression in the hearts” value in the data set with c-Myc (heart, FIG. 5B) was “significantly increased its expression to a level higher than in naive or vehicle-treated mice”. For the same molecule, the “c-Myc protein expression in tumors” value in the data set on c-Myc (tumor, FIG. 5A) was “decreased dramatically”. In addition, in the data set with TNF-α [1], the “LPS-induced expression of TNF-α” value is on record as “suppressed”. Besides, the “paclitaxel-induced increase in expression of TNF-α” value in the data set with TNF-α [2] is given as “significantly attenuated”. In addition, in the data set with fibrous collagen (heart, co-administration with doxorubicin), the “doxorubicin-induced fibrosis in the heart” value is on record as “attenuated the doxorubicin-induced fibrosis”. Besides, the “doxorubicin-induced fibrosis in the kidneys” value in the data set on fibrous collagen (kidneys, co-administration with doxorubicin) was “attenuated the doxorubicin-induced fibrosis”. For the same molecule, the “fibrosis in the tumor” value in the data set with fibrous collagen (tumor, single agent, FIG. 8A) is “reduced fibrosis”. For the same molecule, the “doxorubicin-induced proliferation of fibroblasts in cardiac tissue” value in data set [3] is given as “significantly reduced the doxorubicin-induced proliferation of fibroblasts”. For the same molecule, the IC50 in data set [4] is 200 ± 3 µM; in the data set on PBL (read-out: com IC50, PBL, in combination with Dox) it was 187 µM; in the data set with PBL (single agent, Table 2), 198 µM; in the data set on U251 cells it was 20 µM; in data set [5] (72 h, read-out: IC50 (cell viability)), 20 to 46 µM. For the same molecule, the “pH2AX levels in cardiomyocytes (H9C2)” value with pH2AX in H9C2 cells is listed as “did not increase pH2AX levels”. The “expression of Rad51 in cardiomyocytes (H9C2)” value with Rad51 in H9C2 cells was “moderately increased expression”. The “lipopolysaccharide-induced secretion of IL-6 by human astrocytes” value in the data set with IL-6 is “inhibited”. Besides, the “TLR4 expression in MDA-231 cells” value with TLR4 is “considerably more effective than valproic acid at repressing TLR4”. In addition, the “potency in reducing the viability of cancer cells relative to AN7” value in data set [5] (from IC50 values, FIG. 1A) is on record as 2-5 fold.
